Values after ≈ are worked out from the molar mass of the structure shown. Like-named read-outs stand apart in the source and are kept apart here.
Assays:
[1] = system: Proteus rettgeri P-7; assay: MIC by broth dilution (Table 13); format: cell-based; details: Providencia rettgeri, P7, 20 h
Procedure: (§1) The MIC (minimum inhibitory concentration) values of the compound were determined on various pathogenic microorganisms including several resistant strains, utilizing the broth dilution method in BRAIN HEART INFUSION BROTH `Eiken` (EIKEN CHEMICAL CO., LTD.).
(§2) The results were read after incubation at 35° C. for 20 hours. The minimum inhibitory concentration (MIC) values means the lowest concentration unit of the tritylation product of the antibiotic PS-5 was no growth of the corresponding microorganism was observed under the above described conditions. As the control antibiotics,the solutions of ampicillin and cephaloridine were prepared in BRAIN HEART INFUSION BROTH `Eiken` (pH 7.0) at a concentration of 100 μg/ml and treated same as the test compound of the present invention.

[2] = system: Proteus mirabilis P-6; assay: MIC by broth dilution (Table 13); format: cell-based; details: P6, 20 h
Procedure: as §1, §2

[3] = system: Proteus vulgaris P-5; assay: MIC by broth dilution (Table 13); format: cell-based; details: P5, 20 h
Procedure: as §1, §2

[4] = target: Beta-lactamase from Citrobacter freundii E-9 (Citrobacter freundii, UniProt P05193); assay: Beta-lactamase inhibition, hydrolysis of cephaloridine (I50 CER); format: biochemical; details: Citrobacter freundii E-9 beta-lactamase; cephaloridine substrate; 15 minutes preincubation at 30° C.
Chain of Beta-lactamase from Citrobacter freundii E-9 (P05193 21-381): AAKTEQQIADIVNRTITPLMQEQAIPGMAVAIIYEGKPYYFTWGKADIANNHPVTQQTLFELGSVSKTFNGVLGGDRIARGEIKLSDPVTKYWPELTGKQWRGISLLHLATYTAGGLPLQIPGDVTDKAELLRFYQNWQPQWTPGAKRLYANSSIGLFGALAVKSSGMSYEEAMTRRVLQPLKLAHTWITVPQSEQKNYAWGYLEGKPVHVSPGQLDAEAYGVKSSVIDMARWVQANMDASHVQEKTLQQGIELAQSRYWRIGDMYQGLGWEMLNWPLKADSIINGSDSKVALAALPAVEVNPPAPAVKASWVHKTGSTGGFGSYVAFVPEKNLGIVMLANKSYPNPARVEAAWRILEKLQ
Procedure: The I50^CER value of hydrolysis of cephaloridine by beta-lactamasefor 10 minutes (from one minute to ten minutes after the incubation is started). The rate of hydrolysis of cephaloridine is measured by the decrease of optical density at […]. For routine inhibition assays, beta-lactamase of Citrobacter freundii E-9 and Proteus vulgaris P-5 were employed after purification by affinity chromatography with cephalexin-Sepharose 4B.
Buffer: 0.1 M phosphate buffer (Na-K phosphate) (pH 6.8)
Substrate: 0.05 micromole/ml in phosphate buffer
Beta-lactamase: The enzyme was diluted enough to give a fall of ca. 0.1 optical density unit per 10 minutes at 255 mμ in the absence of an inhibitor. (Apparatus: Hitachi Spectrophotometer UV-VIS 139, Hitachi, Ltd.).
(This can hold one control cuvette and three sample cuvettes. Four 1 cm quarz cuvettes (3 ml in volume) were employed. The temperature was maintained at 30° C. during the reaction). […]
After pre-incubation, the substrate solution (pre-warmed at 30° C.; 3.0 ml) was added and quickly mixed to start the reaction. […] The value of I50^CER (μg/ml) was determined by diluting the inhibitor untill the dilution gave 50% of the rate of hydrolysis of cephaloridine recorded in the no-inhibitor control for 10 minutes (from 1 minute to 11 minutes after the substrate was added).

[5] = Solubility of trityl ester of antibiotic PS-5; format: physicochemical
Procedure: The solubility of the tritylation product of the antibiotic PS-5 was determined by dissolving under […] 5 mg each of the tritylation product of the antibiotic PS-5 in 0.1 ml each of the test solvents at 20° C.

[6] = system: Bacillus subtilis ATCC 6633; assay: MIC by broth dilution (Table 8); format: cell-based; details: ATCC6633, 20 h, read-out: Minimum inhibitory concentration
Procedure: (§3) The MIC values of antibiotic PS-5 sodium salt were determined on various pathogenic microorganisms including resistant strains by the broth dilution method utilizing the BRAIN HEART INFUSION BROTH `Eiken` (EIKEN CHEMICAL CO., LTD.).
(§4) The antibiotic PS-5 sodium salt was dissolved in BRAIN HEART INFUSION BROTH `Eiken` (EIKEN CHEMICAL CO., LTD.) (pH 7.0) at concentration in the range of 5-50 μg/ml, from which appropriate dilution series were made in the same liquid medium. The microorganisms listed in Table 8 were cultivated for 18 hours in BRAIN HEART INFUSION BROTH `Eiken` at 28° C. and inoculated into the said dilution series of antibiotic PS-5 at a final inoculum size of 1×10^5 cells/ml. The cultures were allowed to stand at 35° C. for 20 hours, and then the growth of the microorganisms was read at each dilution of antibiotic PS-5. The minimum inhibitory concentration (MIC) represents the smallest concentration of the antibiotic PS-5 (sodium salt) where no propagation of the relevant microorganism was visually confirmed. As the controls, two known beta-lactam antibiotics, cephaloridine and cefoxitin were dissolved in brain heart infustion broth at pH 7.0 at concentrations ranging from 1 μg/ml to 100 μ g/ml and then diluted to make several dilution series in the above mentioned liquid medium. These samples were treated as described above for the MIC determinations.

[7] = system: Staphylococcus aureus Bx-1633; assay: MIC by broth dilution (Table 8); format: cell-based; details: BX1633, 20 h, read-out: Minimum inhibitory concentration
Procedure: as §3, §4

[8] = system: Streptococcus pyogenes NY-5; assay: MIC by broth dilution (Table 8); format: cell-based; details: NY5, 20 h, read-out: Minimum inhibitory concentration
Procedure: as §3, §4

[9] = system: Diplococcus pneumoniae Type III; assay: MIC by broth dilution (Table 8); format: cell-based; details: Streptococcus pneumoniae, 20 h, read-out: Minimum inhibitory concentration
Procedure: as §3, §4

[10] = system: Staphylococcus aureus Smith; assay: MIC by broth dilution (Table 8); format: cell-based; details: 20 h, read-out: Minimum inhibitory concentration
Procedure: as §3, §4

[11] = system: Staphylococcus aureus EDA 209 P; assay: MIC by broth dilution (Table 8); format: cell-based; details: EDA209P, 20 h, read-out: Minimum inhibitory concentration
Procedure: as §3, §4

[12] = Solubility of antibiotic PS-5; format: physicochemical
[13] = pH and heat stability of antibiotic PS-5 in aqueous solution; format: physicochemical; details: for remaining at 0.25 h: water, pH 9, at least 15 min of heating at 60° C., aqueous solution, around neutral to weakly alkaline pH below pH 9
[14] = 5 mg in 0.1 ml solvent at 20° C.

SMILES: CCC1C(=O)N2C(C(=O)OC(c3ccccc3)(c3ccccc3)c3ccccc3)=C(SCCNC(C)=O)CC12 (single isomer, unassigned) [Trityl PS-5]
- MIC ([1]; Proteus rettgeri P-7, read-out: MIC): 10 µg/mL (≈ 18.5 µM)
- MIC ([2]; Proteus mirabilis P-6, read-out: MIC): 21.5 µg/mL (≈ 39.8 µM)
- MIC ([3]; Proteus vulgaris P-5, read-out: MIC): 21.5 µg/mL (≈ 39.8 µM)
- IC50 [4]: 1.48 µM
- Solubility in benzene, ethyl acetate, chloroform, methanol, ethanol, acetone, DMF and DMSO [5, 14]: Highly soluble
- Solubility in water, n-hexane and petroleum ether [5, 14]: Substantially insoluble
- Solubility in benzene, ethyl acetate, chloroform, acetone and dimethyl sulfoxide ([5]; general description): soluble
- Solubility in water, hexane and petroleum ether ([5]; general description): substantially insoluble

SMILES: O=C(Cc1cccs1)N[C@@H]1C(=O)N2C(C(=O)[O-])=C(C[n+]3ccccc3)CS[C@H]12 [Cephaloridine, cephaloridine]
- MIC ([6]; Bacillus subtilis): 0.031 µg/mL (≈ 0.0746 µM)
- MIC ([7]; Staphylococcus aureus): 0.031 µg/mL (≈ 0.0746 µM)
- MIC ([8]; Streptococcus pyogenes): 0.008 µg/mL (≈ 0.0193 µM)
- MIC [9]: 0.031 µg/mL (≈ 0.0746 µM)
- MIC ([10]; Staphylococcus aureus): 0.031 µg/mL (≈ 0.0746 µM)
- MIC ([11]; Staphylococcus aureus): 0.031 µg/mL (≈ 0.0746 µM)
- MIC [1]: 50 µg/mL (≈ 120 µM)
- MIC ([2]; Proteus mirabilis): 10 µg/mL (≈ 24.1 µM)
- MIC ([3]; Proteus vulgaris): > 20 µg/mL

SMILES: CCC1C(=O)N2C(C(=O)O)=C(SCCNC(C)=O)CC12 (single isomer, unassigned) [Antibiotic PS-5]
- MIC ([6]; Bacillus subtilis ATCC 6633): 0.16 µg/mL (≈ 0.536 µM)
- MIC ([7]; Staphylococcus aureus Bx-1633, PS-5 as sodium salt): 0.16 µg/mL
- MIC ([8]; Streptococcus pyogenes NY-5, 10% horse blood supplemented into the medium): 0.08 µg/mL (≈ 0.268 µM)
- MIC ([9]; Diplococcus pneumoniae Type III, 10% horse blood supplemented into the medium): 0.02 µg/mL (≈ 0.067 µM)
- MIC ([10]; Staphylococcus aureus Smith, PS-5 as sodium salt): 0.31 µg/mL
- MIC ([11]; Staphylococcus aureus EDA 209 P, PS-5 as sodium salt): 0.16 µg/mL
- Solubility in ethyl acetate and benzene ([12]; at pH above 4): substantially insoluble
- Solubility in water ([12]; water at pH 6 to 9): soluble
- remaining at 5 min ([13]; pH 3, pH 3.0 for 5 minutes at -17° C., read-out: Initial antibiotic activity still detected): ≥ 30%
- remaining at 0.25 h ([13]; read-out: Antibiotic activity remaining): ≥ 50%
- remaining at 0.25 h ([13]; usual value, read-out: Antibiotic activity remaining, usually): > 70%

From US4318916A, “Antibiotic PS-5 and derivatives having β-lactamase inhibitory activity and production thereof” (Sanraku-Ocean Co., Ltd., priority 1977, dated 1982)
